Experimental data reported in patent EP4810483A1, “6- AND 5-HETEROARYL DERIVATIVES AND USE THEREOF” (CMS Research & Development Pte. Ltd., priority 2023, dated 2025).
pEC50, pIC50: −log10 of the molar value.

Key:
[1] = system: maximal electroshock-induced epilepsy model; test: Maximal electroshock-induced epilepsy model, behavioral pharmacodynamics; type: in vivo; details: dose 5 mg/kg, oral, one hour before electrical stimulation; male CD-1 mice
Text: Assay Example 2: Evaluation of the behavioral pharmacodynamics of the test compounds in a maximal electroshock-induced epilepsy model
This study used behavioral tests in male CD-1 mice to investigate the effects of test compounds on acute epileptic seizures behavior induced by maximal electroshock.
Male CD-1 mice (25 to 35g) were used as the experimental animals and fed with standard feed (Beijing Vital River Laboratory Animal Technology Co., Ltd.).
After arriving at the animal facility, the experimental animals needed to acclimatize for at least one week. The mice were observed daily for vital signs, and randomly divided into groups according to their body weights one day before the drug administration. One hour before the electrical stimulation, different dosages of the test compound were orally administered to each group. On the day of the assay, the male CD-1 mice in each group were anesthetized locally at the cornea with 2% lidocaine. Then, silver bipolar electrodes were used to electrically stimulate the cornea of the mice with 18 mA, 60 Hz, a pulse width of 0.6 ms, and a stimulation time of 1 s to induce seizures. Subsequently, the latency of seizures and the duration of limb rigidity in mice after the electrical stimulation were observed, and the protection rate from seizures for each group was statistically analyzed.

CYP2D6 = CYP2D6 (Homo sapiens, UniProt P10635); test: Drug-drug interaction evaluation: CYP inhibition in human liver microsomes (cocktail method)
Experimental: (§1) The cocktail method using specific probe substrates for CYP1A2, CYP2C9, CYP2C19, CYP2D6 and CYP3A was used to evaluate the inhibitory effect of the compounds on the activity of human liver microsomal cytochrome P450 isoenzymes (CYP1A2, CYP2C9, CYP2C19, CYP2D6 and CYP3A).
(§2) Human liver microsomes, probe substrates, positive control inhibitors, and reduced nicotinamide adenine dinucleotide phosphate (NADPH).
(§3) To the corresponding wells of a reaction plate, 20 µL of substrate solution was added; to blank wells, 20 µL of potassium phosphate buffer was added.
(§4) To the corresponding wells, 2 µL of test compound and positive control working solution were added; to inhibitor-free and blank wells, 2 µL of solvent was added.
(§5) Human liver microsome working solution was prepared, and 158 µL of human liver microsome working solution was added to each well of the reaction plate.
(§6) The plate was pre-incubated at 37.0°C for 10 minutes.
(§7) To start the reaction, 20 µL of NADPH cofactor working solution was added to the reaction plate.
(§8) After incubation in a 37.0°C water bath with mixing for 10 minutes, 400 µL of stop solution was added to terminate the reaction.
(§9) The sample plate was centrifuged at 4000 rpm for 20 minutes.
(§10) 200 µL of supernatant was taken and mixed with 100 µL of pure water as diluent, and the plate was shaken to mix well.
(§11) Analysis was performed by liquid chromatography-tandem mass spectrometry (LC-MS/MS).
(§12) Using the percentage of remaining activity as the ordinate and the test compound concentration as the abscissa, a non-linear regression analysis was performed with a three-parameter or four-parameter model using XL fit software to calculate the IC50 value.
(§13) y = (max)/(1 + (((x)/(IC50)))^−hillslope) [formula]
(§14) y = min + (max−min)/(1 + (((x)/(IC50)))^−hillslope) [formula]
(§15) max = maximum enzyme activity; min = minimum enzyme activity; x = concentration of test compound or positive control inhibitor; y = enzyme activity at the corresponding concentration; hillslope = slope; IC50 = half-maximal inhibitory concentration. The four-parameter equation was used when the minimum enzyme activity was within ±10%; otherwise the three-parameter equation was used.

CYP1A2 = biological target: T1, CYP1A2 (Homo sapiens, UniProt P05177); test: as above
T1 sequence (P05177 1-516): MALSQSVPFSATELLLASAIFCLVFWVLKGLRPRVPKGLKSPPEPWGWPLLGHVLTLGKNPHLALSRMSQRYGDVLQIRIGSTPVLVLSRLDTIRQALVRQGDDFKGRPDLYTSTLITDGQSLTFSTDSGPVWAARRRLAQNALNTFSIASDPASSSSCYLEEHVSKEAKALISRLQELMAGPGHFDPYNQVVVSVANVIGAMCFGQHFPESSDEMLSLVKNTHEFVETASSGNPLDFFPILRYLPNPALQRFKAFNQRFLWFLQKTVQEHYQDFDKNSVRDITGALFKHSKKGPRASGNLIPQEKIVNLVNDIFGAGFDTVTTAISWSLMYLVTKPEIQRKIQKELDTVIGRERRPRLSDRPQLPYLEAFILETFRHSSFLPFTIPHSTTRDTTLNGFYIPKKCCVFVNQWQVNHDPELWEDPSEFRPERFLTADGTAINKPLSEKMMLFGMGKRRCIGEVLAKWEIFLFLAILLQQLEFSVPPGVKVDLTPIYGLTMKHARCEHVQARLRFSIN
Experimental: as §1, §2, §3, §4, §5, §6, §7, §8, §9, §10, §11, §12, §13, §14, §15

CYP2C19 = CYP2C19 (Homo sapiens, UniProt P33261); test: as above
Experimental: as §1, §2, §3, §4, §5, §6, §7, §8, §9, §10, §11, §12, §13, §14, §15

CYP3A4 = CYP3A4 (Homo sapiens, UniProt P08684); test: as above
Experimental: as §1, §2, §3, §4, §5, §6, §7, §8, §9, §10, §11, §12, §13, §14, §15

CYP2C9 = CYP2C9 (Homo sapiens, UniProt P11712); test: as above
Experimental: as §1, §2, §3, §4, §5, §6, §7, §8, §9, §10, §11, §12, §13, §14, §15

hKCNQ2/3 = biological target: T2, hKCNQ2/3 (Homo sapiens, UniProt O43525+O43526); test: cell-based
T2 construct: expressed in transfected cells; host or cells: CHO
Text: Test Method 1: hKCNQ2/3 Thallium Flux Assay
Test Objective: To test the in vitro concentration-response relationship of compounds using FLIPR thallium flux assay in CHO cell lines stably expressing hKCNQ2/3.
According to the split ratio, the cells were transferred to another T-75 flask containing complete cell growth medium. Note: To maintain logarithmic growth, the cells should be kept in a subconfluent monolayer state. Based on the cell doubling time, the cells were passaged every 2-3 days.
• (1) Day 1 - Cell preparation: Cells were digested as described above, and cell density and viability were determined using a Cell Countess. The volume of the single-cell suspension was adjusted with complete cell growth medium. Then, hKCNQ2/3_CHO cells were seeded onto PDL-precoated 384-well plates at a density of approximately 20,000 cells/well (30 µL/well). The plates were then incubated overnight in a 37°C, 5% CO2 humidified air incubator. • (2) Day 2 - Compound preparation: Test compounds were diluted with dimethyl sulfoxide (DMSO) to stock concentrations and stored in a -20°C freezer. A compound addition program was set up on the ECHO liquid handler, and compounds were added to the plates using the ECHO liquid handler. Retigabine (RTG) was used as a positive control at a highest concentration of 100 µM with 3-fold serial dilutions for a total of 9 doses. Buffer containing 5 mM K^+ and 1 mM Tl^+ was added to the plates. Notes: 1) K2SO4 and Tl2SO4 were prepared in 1× chloride-free buffer. Depending on the voltage-gated potassium channel involved, the concentrations of Tl^+ and K^+ should be adjusted. Tl^+ concentration is approximately 0.5-5 mM, and K^+ concentration is approximately 5-30 mM. 2) Each 1 mM solution of K2SO4 and Tl2SO4 contains 2 mM K^+ and Tl^+; the final concentration should be calculated based on the ion concentration. 3) TlCl readily precipitates and a chloride-free buffer is required. • (3) Day 2 -Assay testing: Once the cells reached the desired confluence, the cell assay plates were removed from the incubator. Assay buffer and diluted Tl^+ dye (Molecular Devices # R8222) were prepared. The medium was discarded using a Bravo liquid handler, and 25 µL of Tl^+ dye was added to each well. After 1 hour of incubation, the cell assay plates, composite plates and FLIPR tips were placed in the FLIPR^TETRA (Molecular Devices, USA) for FLIPR detection. After setting up the tips, baseline readings were taken for 60 seconds, then 12.5 µL was added from the composite plate (3×) to the cell assay plate, and data were recorded for at least 5 minutes. • (4) Data processing: Maximum signals were generated by the FLIPR software. […] Data quality control: S/B > 2.00, Z factor > 0.50.
• (1) Day 1 - Cell preparation: Cells were digested as described above, and cell density and viability were determined using a Cell Countess. The volume of the single-cell suspension was adjusted with complete cell growth medium. Then, hKCNQ2/3_CHO cells were seeded onto PDL-precoated 384-well plates at a density of approximately 20,000 cells/well (30 µL/well). The plates were then incubated overnight in a 37°C, 5% CO2 humidified air incubator. • (2) Day 2 - Compound preparation: Test compounds were diluted with dimethyl sulfoxide (DMSO) to stock concentrations and stored in a -20°C freezer. A compound addition program was set up on the ECHO liquid handler, and compounds were added to the plates using the ECHO liquid handler. Retigabine (RTG) was used as a positive control at a highest concentration of 100 µM with 3-fold serial dilutions for a total of 9 doses. Buffer containing 5 mM K^+ and 1 mM Tl^+ was added to the plates. Notes: 1) K2SO4 and Tl2SO4 were prepared in 1× chloride-free buffer. Depending on the voltage-gated potassium channel involved, the concentrations of Tl^+ and K^+ should be adjusted. Tl^+ concentration is approximately 0.5 mM -5 mM, and K^+ concentration is approximately 5 mM -30 mM.

CYP2D6, sequence (P10635 whole entry): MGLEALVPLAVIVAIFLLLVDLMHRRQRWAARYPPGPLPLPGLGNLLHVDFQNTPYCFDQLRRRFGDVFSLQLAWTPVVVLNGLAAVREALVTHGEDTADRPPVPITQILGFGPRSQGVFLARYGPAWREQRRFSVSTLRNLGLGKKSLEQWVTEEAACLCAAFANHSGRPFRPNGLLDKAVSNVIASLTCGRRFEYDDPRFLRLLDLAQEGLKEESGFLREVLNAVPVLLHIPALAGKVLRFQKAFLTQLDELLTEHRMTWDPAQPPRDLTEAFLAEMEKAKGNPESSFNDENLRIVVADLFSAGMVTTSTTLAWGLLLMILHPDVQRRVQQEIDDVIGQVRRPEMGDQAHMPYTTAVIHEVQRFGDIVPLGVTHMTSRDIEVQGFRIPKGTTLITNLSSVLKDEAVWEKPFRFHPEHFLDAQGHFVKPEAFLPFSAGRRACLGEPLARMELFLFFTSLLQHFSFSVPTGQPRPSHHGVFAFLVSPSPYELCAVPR
CYP3A4, sequence (P08684 2-503): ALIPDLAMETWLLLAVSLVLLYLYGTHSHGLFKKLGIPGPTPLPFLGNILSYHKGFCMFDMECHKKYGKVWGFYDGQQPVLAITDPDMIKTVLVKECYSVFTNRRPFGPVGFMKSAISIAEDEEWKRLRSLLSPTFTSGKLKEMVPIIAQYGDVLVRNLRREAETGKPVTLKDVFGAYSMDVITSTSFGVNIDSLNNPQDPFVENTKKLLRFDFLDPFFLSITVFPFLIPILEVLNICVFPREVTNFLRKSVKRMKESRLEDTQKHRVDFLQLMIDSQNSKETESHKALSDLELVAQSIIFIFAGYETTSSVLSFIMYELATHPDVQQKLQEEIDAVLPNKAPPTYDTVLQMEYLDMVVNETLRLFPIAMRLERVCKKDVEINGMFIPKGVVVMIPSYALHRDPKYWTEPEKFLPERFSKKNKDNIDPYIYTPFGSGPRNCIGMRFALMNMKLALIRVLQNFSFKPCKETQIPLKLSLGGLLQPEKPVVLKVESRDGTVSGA
CYP2C19, sequence (P33261 whole entry): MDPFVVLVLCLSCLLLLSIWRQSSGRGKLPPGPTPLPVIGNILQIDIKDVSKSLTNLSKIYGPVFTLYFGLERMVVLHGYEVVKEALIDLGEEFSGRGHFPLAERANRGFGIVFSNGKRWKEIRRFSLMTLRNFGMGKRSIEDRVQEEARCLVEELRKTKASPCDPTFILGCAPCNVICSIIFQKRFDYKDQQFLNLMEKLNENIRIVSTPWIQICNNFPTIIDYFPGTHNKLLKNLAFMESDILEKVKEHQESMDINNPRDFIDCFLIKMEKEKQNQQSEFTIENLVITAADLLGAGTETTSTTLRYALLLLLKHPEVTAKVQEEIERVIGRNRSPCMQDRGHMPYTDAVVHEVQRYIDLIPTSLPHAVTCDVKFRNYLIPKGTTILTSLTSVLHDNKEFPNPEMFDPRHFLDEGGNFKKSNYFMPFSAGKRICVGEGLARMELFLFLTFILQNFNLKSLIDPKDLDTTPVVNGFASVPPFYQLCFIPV
CYP2C9, sequence (P11712 whole entry): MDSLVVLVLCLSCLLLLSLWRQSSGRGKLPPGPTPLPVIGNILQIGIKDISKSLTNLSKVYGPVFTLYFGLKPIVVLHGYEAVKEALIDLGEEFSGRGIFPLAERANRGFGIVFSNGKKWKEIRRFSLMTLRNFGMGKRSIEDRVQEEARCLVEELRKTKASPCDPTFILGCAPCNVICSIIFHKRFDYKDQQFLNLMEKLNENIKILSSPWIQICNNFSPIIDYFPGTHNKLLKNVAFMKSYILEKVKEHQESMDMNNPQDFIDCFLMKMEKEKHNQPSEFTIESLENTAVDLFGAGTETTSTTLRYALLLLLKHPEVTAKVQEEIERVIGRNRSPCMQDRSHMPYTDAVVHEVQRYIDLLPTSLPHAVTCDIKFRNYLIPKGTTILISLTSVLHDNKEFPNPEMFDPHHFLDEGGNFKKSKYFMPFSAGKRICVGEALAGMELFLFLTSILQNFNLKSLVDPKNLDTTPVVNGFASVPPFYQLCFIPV
T2 sequence (O43526 whole entry): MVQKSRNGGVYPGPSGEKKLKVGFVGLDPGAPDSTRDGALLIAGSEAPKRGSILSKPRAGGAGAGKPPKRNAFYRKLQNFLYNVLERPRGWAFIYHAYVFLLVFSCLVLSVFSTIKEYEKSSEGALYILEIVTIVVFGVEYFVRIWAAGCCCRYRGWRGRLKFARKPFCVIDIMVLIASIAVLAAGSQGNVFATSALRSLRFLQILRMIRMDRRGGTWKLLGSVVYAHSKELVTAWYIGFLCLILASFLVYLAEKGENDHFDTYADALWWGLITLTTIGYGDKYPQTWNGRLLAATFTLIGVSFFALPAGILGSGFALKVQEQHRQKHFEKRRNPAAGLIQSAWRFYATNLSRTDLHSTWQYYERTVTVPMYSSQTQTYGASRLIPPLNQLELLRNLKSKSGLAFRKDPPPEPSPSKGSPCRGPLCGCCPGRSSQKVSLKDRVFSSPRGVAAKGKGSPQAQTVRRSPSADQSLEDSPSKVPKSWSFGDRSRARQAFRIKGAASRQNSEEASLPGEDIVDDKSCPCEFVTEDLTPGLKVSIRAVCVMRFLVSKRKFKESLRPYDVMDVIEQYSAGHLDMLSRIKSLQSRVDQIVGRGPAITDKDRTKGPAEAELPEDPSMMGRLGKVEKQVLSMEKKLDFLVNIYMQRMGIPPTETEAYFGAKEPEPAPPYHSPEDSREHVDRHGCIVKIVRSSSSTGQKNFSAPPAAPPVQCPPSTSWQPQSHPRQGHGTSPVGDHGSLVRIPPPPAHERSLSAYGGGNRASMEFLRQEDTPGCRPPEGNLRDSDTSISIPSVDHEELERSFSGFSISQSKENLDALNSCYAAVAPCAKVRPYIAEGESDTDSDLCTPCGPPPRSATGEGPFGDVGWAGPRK
T2 sequence (O43525 whole entry): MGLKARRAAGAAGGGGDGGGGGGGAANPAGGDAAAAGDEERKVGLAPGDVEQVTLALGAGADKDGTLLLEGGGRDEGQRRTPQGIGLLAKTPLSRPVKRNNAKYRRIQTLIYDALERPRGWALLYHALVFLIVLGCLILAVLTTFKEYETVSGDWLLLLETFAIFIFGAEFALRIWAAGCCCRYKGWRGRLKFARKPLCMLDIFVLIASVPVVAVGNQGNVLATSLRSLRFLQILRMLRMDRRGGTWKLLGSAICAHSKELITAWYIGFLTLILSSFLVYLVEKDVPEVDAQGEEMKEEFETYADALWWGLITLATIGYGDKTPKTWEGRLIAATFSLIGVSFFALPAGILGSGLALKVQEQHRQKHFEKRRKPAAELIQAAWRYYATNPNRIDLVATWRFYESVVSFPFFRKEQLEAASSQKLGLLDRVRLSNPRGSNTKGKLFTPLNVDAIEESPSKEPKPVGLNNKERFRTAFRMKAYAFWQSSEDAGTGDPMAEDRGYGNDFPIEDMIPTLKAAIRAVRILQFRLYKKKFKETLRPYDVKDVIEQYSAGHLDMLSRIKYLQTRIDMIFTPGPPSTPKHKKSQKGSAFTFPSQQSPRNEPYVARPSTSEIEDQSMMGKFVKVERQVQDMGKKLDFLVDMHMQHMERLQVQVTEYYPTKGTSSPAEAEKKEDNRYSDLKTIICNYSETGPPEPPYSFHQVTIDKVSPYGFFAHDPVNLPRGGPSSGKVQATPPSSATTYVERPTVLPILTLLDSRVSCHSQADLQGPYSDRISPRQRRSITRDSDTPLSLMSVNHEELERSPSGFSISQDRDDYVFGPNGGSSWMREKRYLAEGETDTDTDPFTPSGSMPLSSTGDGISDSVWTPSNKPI

| SMILES | Seizure incidence (%) [1] | pIC50 (CYP2D6) | pIC50 (CYP1A2) | pIC50 (CYP2C19) | pIC50 (CYP3A4) | pIC50 (CYP2C9) | pEC50 (hKCNQ2/3) |
| --- | --- | --- | --- | --- | --- | --- | --- |
| Cc1cc(F)cnc1Nc1ccc2c(C)c(NC(=O)CC(C)(C)C)n(C)c2c1 [Compound 31] | 16.7% | < 4.30 | < 4.30 | < 4.30 | < 4.30 | < 4.30 |  |
| Cc1c(NC(=O)CC(C)(C)C)n(C)c2cc(Nc3ncc(F)cc3F)ccc12 [Compound 26] |  | < 4.30 | 4.72 | 4.36 | < 4.30 | < 4.30 | 6.40 |
